Results as given in patent US12404241B2 (Celgene Corporation, priority 2018, dated 2025).
Structures can show the parent of a compound that is named as a salt.

Target: T1, AR (Homo sapiens, UniProt P10275)
T1 construct: endogenous in cells; host or cells: VCaP cells
T1 sequence (P10275 1-920): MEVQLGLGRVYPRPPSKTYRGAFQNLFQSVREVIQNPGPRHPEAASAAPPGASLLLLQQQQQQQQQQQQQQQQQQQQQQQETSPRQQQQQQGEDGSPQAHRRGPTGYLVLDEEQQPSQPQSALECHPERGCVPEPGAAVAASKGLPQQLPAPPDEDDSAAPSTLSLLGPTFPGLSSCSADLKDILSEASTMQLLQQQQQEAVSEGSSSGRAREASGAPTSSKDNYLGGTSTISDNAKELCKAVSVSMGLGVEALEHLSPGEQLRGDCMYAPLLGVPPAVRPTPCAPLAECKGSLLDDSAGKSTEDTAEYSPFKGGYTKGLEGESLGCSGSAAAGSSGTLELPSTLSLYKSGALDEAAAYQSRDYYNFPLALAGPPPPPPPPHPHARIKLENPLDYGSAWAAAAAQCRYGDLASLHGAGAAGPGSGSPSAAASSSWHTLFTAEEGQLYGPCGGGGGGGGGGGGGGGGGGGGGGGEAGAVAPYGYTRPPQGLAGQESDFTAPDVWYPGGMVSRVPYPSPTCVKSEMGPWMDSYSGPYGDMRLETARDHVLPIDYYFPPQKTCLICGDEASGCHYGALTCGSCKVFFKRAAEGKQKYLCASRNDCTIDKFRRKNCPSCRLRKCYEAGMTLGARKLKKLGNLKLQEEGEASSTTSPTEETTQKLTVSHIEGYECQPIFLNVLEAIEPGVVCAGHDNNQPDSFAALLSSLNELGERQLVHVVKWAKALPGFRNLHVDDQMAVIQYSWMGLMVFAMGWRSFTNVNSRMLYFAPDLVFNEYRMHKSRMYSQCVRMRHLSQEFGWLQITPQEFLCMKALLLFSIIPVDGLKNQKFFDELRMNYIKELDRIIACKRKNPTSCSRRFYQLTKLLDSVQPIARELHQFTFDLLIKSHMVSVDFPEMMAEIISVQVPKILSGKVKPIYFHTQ
Assay: VCAP AR Degradation Assay
Assay type: cell-based
Conditions: for Y (AR degradation efficiency, % of DMSO control): class symbols *; for DC50: class symbols A-C, read-out: DC50
Experimental: VCAP AR Degradation Assay. Test compounds were pre-dispensed into a Corning CellBind 96-well clear bottom plate (Cat #3300) using an acoustic dispenser to make a 10-point concentration series at 1:3 dilution for each compound. The final top concentration of each compound was 5 μM. DMSO at a final concentration of 0.1% was used as a control. VCaP cells cultured in DMEM with 8% fetal bovine serum (FBS) were seeded at 50K cells per well in a 200 μL volume into the compound plate and incubated at 37° C. in a CO2 incubator for 24 h. The medium was carefully removed from the cells and the plate was placed on ice. One hundred μL of ice-cold 1x cell lysis buffer from Cell Signaling Technologies (Cat #9803) was added to each well of the cells and the plate was incubated at 4° C. on a shaker for 1 h. Fifteen μL of cell lysate was used for AR ELISA detection using a PathScan Total Sandwich AR ELISA kit (Cell Signaling Technology, Cat #12580). AR levels in compound-treated wells were normalized to that of DMSO control and expressed as percent of control (PoC) (y). A Four Parameter Logistic Model (Sigmoidal Dose-Response Model) was used to determine the compound's DC50, and EC50, using the following equation:
[formula] • A=YMin (lowest AR level normalized to DMSO control in response to compound treatment, as determined by curve fit) • B=YMax (maximum AR level as determined by curve fit) • C=EC50 • D=Hill Slope • x=compound concentration • EC50=the concentration of compound when y=(YMax−YMin)/2 • DC50=the concentration of the compound when y=50% of DMSO control (50% AR degradation) • y=AR protein level normalized to DMSO control
The lowest measured AR level normalized to DMSO control in response to compound treatment, termed Y value, was used to characterize the compound-mediated AR degradation efficiency.

In the case of `N#Cc1ccc(N2C(=O)C3(CCOC3)N(c3ccc(OCCN4CCN(CC(=O)Nc5cc(Cl)cc(NC6CCC(=O)NC6=O)c5)CC4)c(F)c3)C2=S)cc1C(F)(F)F` (single isomer, unassigned) [Example 55, N-(3-chloro-5-(2,6-dioxopiperidin-3-ylamino)phenyl)-2-(4-(2-(4-(3-(4-cyano-3 (trifluoromethyl)phenyl)-4-oxo-2-thioxo-7-oxa-1,3-diazaspiro[4.4]nonan-1-yl)-2-fluorophenoxy)ethyl)piperazin-1-yl)acetamide], the “Y (AR degradation efficiency, % of DMSO control)” value is reported as “** (25%<Y<=35%)” and the DC50 is reported as 100 to 500 nM.
`CCc1cc(N2C(=S)N(c3cnc(C#N)c(C(F)(F)F)c3)C(=O)C2(C)C)ccc1OCCN1CCN(CC(=O)Nc2cc(NC3CCC(=O)NC3=O)ccc2F)CC1` (stereo not shown) [Example 64, 2-(4-(2-(4-(3-(6-cyano-5-(trifluoromethyl)pyridin-3-yl)-5,5-dimethyl-4-oxo-2-thioxoimidazolidin-1-yl)-2-ethylphenoxy)ethyl)piperazin-1-yl)-N-(5-(2,6-dioxopiperidin-3-ylamino)-2-fluorophenyl)acetamide] was tested, and the “Y (AR degradation efficiency, % of DMSO control)” value was “* (0<Y<=25%)” and the DC50 was < 100 nM.
For `CCC(C)c1cc(N2C(=S)N(c3cnc(C#N)c(C(F)(F)F)c3)C(=O)C2(C)C)ccc1OCCN1CCN(CC(=O)Nc2cccc(NC3CCC(=O)NC3=O)c2)CC1` (stereo not shown) [Example 37, hydrochloride], the “Y (AR degradation efficiency, % of DMSO control)” value was “*** (35%<Y<50%)” and the DC50 was 500 to 1000 nM.
For `C[C@@H]1CN(CCOc2ccc(N3C(=S)N(c4ccc(C#N)c(C(F)(F)F)c4)C(=O)C3(C)C)cc2C2CCC2)C[C@H](C)N1CC(=O)Nc1cccc(NC2CCC(=O)NC2=O)c1` (stereo partly drawn) [Example 259, 2-((2R,6S)-4-(2-(4-(3-(4-cyano-3-(trifluoromethyl)phenyl)-5,5-dimethyl-4-oxo-2-thioxoimidazolidin-1-yl)-2-cyclobutylphenoxy)ethyl)-2,6-dimethylpiperazin-1-yl)-N-(3-(2,6-dioxopiperidin-3-ylamino)phenyl)acetamide], the “Y (AR degradation efficiency, % of DMSO control)” value was “* (0<Y<=25%)” and the DC50 was < 100 nM.
For `C[C@@H]1CN(CCOc2ccc(N3C(=S)N(c4cnc(C#N)c(C(F)(F)F)c4)C(=O)C3(C)C)cc2C2CCC2)C[C@H](C)N1CC(=O)Nc1cccc(NC2CCC(=O)NC2=O)c1` (stereo partly drawn) [Example 268, 2-((2R,6S)-4-(2-(4-(3-(6-cyano-5-(trifluoromethyl)pyridin-3-yl)-5,5-dimethyl-4-oxo-2-thioxoimidazolidin-1-yl)-2-cyclobutylphenoxy)ethyl)-2,6-dimethylpiperazin-1-yl)-N-(3-(2,6-dioxopiperidin-3-ylamino)phenyl)acetamide], the “Y (AR degradation efficiency, % of DMSO control)” value was “** (25%<Y<=35%)” and the DC50 was < 100 nM.
With `CCCc1cc(N2C(=S)N(c3ccc(C#N)c(C(F)(F)F)c3)C(=O)C2(C)C)ccc1OCCN1CCN(CC(=O)Nc2cccc(NC3CCC(=O)NC3=O)c2)CC1` (stereo not shown) [Example 34, hydrochloride] the “Y (AR degradation efficiency, % of DMSO control)” value was “* (0<Y<=25%)” and the DC50 was < 100 nM.
With `CCc1cc(N2C(=S)N(c3ccc(C#N)c(C(F)(F)F)c3)C(=O)C2(C)C)ccc1OCCN1CCN(CC(=O)Nc2cccc(NC3CCC(=O)NC3=O)c2)[C@H](CO)C1` (stereo partly shown) [Example 50] the “Y (AR degradation efficiency, % of DMSO control)” value was “*** (35%<Y<50%)” and the DC50 was 500 to 1000 nM.
In the case of `CC1(C)C(=O)N(c2ccc(C#N)c(C(F)(F)F)c2)C(=S)N1c1ccc(OCCN2CCN(CC(=O)Nc3cccc(NC4CCC(=O)NC4=O)c3)CC2)c(CCF)c1` (stereo not shown) [Example 160, 2-(4-(2-(4-(3-(4-cyano-3-(trifluoromethyl)phenyl)-5,5-dimethyl-4-oxo-2-thioxoimidazolidin-1-yl)-2-(2-fluoroethyl)phenoxy)ethyl)piperazin-1-yl)-N-(3-(2,6-dioxopiperidin-3-ylamino)phenyl)acetamide], the “Y (AR degradation efficiency, % of DMSO control)” value is reported as “* (0<Y<=25%)” and the DC50 is reported as < 100 nM.
